# Results published in paper PMC5515971, “Utility of spherical human liver microtissues for prediction of clinical drug-induced liver injury” (Archives of Toxicology, 2017).
# pIC50: −log10 of the molar value. Entries after “also recorded” stand apart in the source; their conditions may differ. Where two headings read alike, the source gives them in different places.
# How the values were obtained:
# [1] = system: 3D human liver microtissues (hLiMT); test: Cytotoxicity (cellular ATP, CellTiter-Glo 2.0) in 3D human liver microtissues, 14 day repeat-dose treatment; conditions: for IC50 / pIC50: Homo sapiens, 336 h; for IC50: Hepatocyte, read-out: Geomean IC50 [µM]
# [2] = system: 3D human liver microtissues (hLiMT)
# [3] = system: primary human hepatocytes (PHH); test: Cytotoxicity (cellular ATP, CellTiter-Glo) in 2D plated primary human hepatocytes, 48 h treatment; assay type: cell-based; conditions: for pIC50: Hepatocyte, 2D primary human hepatocytes (lot IZT), 48 h treatment, total cellular ATP content, read-out: Geomean IC50;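 as to all read-outs here: 384-well plates, luminescence read-out, normalized to vehicle wells with 1% DMSO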
# Protocol: Cryopreserved PHH (lot IZT) were thawed in InVitroGro HT™ thawing media at 37 °C, pelleted, and resuspended. Viable hepatocytes were counted by Trypan blue exclusion and plated in black-walled, BioCoat™ collagen 384-well plates at 13,000 cells/well in InVitroGro CP™ plating media supplemented with 1% Torpedo™ Antibiotic Mix and 5% fetal bovine serum and incubated overnight for 18 h. Cells were then treated with compounds for 48 h diluted in InVitroGro HI™ incubation media containing 1% Torpedo Antibiotic Mix, 10% fetal bovine serum, and 1% DMSO. […] Luminescence was determined on an EnVision™ Muliplate Reader (PerkinElmer, Waltham, MA, USA), and data were normalized to vehicle (1% DMSO) control wells.
# [4] = cited from earlier work; for P/N (DILI positive / DILI negative): P = DILI severity categories 1, 2 and 3, N = categories 4 and 5; for DILI category: clinical, from literature and product labels
# [5] = cited from earlier work
# [6] = Clinical DILI severity categorization and DILI pattern; conditions: P = DILI severity categories 1, 2 and 3; N = categories 4 and 5
# [7] = ref Chen et al 2016 / Chen et al 2011; cited from earlier work
# [8] = system: 3D human liver microtissues (hLiMT); test: Cytotoxicity (cellular ATP) in 3D human liver microtissues, 5-6 days treatment; assay type: cell-based; conditions: Homo sapiens; hLiMT, 5/6 days, ATP content; read-out: IC50 SHORT;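 also: Hanging-drop spheroids, seven-point dilution series, re-dosed on day 3, CellTiter-Glo 2.0 luminescence, normalized to 0.5 or 1% DMSO vehicle controls on the same plate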
# [9] = system: 3D human liver microtissues (hLiMT); test: alpha-GST release into hLiMT supernatant (ELISA); assay type: cell-based; conditions: 336 h, 14 days, release into medium, read-out: IC50 (α-GST assay)
# Protocol: Supernatants from single hLiMT (in triplicates) were analysed for α-GST content using EKF’s α-GST ELISA assay. Briefly, 50 μL of the thawed cell-culture supernatants from single microtissues was transferred into a new v-bottom plate and diluted with 60 μl sample diluent buffer. From this dilution, 100 μL were transferred to the microassay strips. The ELISA was otherwise performed according to the manufacturer’s instructions.
# [10] = parameters: method as in Russmann et al. [2005]; conditions: patients; ref Russmann et al. [2005]; cited from earlier work
# [11] = system: BSEP transporter; parameters: method as in Kenna et al. [2015]; conditions: ref Kenna et al. [2015]; cited from earlier work
# [12] = system: 3D human liver microtissues (hLiMT); test: HMGB1 levels in hLiMT supernatant (ELISA); assay type: cell-based; conditions: 5 days exposure
# Protocol: Supernatants from single hLiMT (in triplicates) were analysed for HMGB1 content using IBLs ELISA assay using the high sensitive range test procedure. Briefly, 50 μL of the thawed cell-culture supernatants from single microtissues or diluted standards were incubated in the microtiter plate along with 50 μL of the diluent buffer for 20-24 h at 37 °C in the dark. The plate was then washed 5 times with 400 µL diluted wash buffer (1:5), blotted dry and 100 µL enzyme conjugate added. After incubation in the dark for 2 h at 25 °C the plate was washed 5 times with 400 µL diluted wash buffer, blotted dry and then 100 µL colour solution added. The plate was incubated for a further 30 min at room temperature prior to the addition of 100 µL stop solution. The absorbance was then determined at 450 nm using an EnVision® plate reader (PerkinElmer, Waltham, MA, USA) within 60 min. The concentration of HMGB1 in the samples was read off the high sensitivity range standard curve obtained from plotting the OD of the standards against the concentration (ng/L).
# [13] = system: 3D human liver microtissues (hLiMT); test: miR-122 levels in hLiMT supernatant (qRT-PCR); assay type: cell-based; conditions: 5 days exposure
# Protocol: miRNA extraction miRNA was extracted using a miRNeasy kit, following the manufacturer's instructions, and as described by Starkey et al. 2016 with minor modifications. Thirty-eight µL thawed hLiMT supernatant was mixed with 162 µL nuclease-free water and 700 µL QIAzol reagent and then incubated for 5 min at room temperature. Chloroform (100 µL) was added, the samples shaken vigorously for 15 sec and then centrifuged at 12,000 g for 15 min at 4 °C. The supernatant was then mixed with 500 µL 70% ethanol and transferred to a miRNeasy minispin column. The column was centrifuged at >8000 g for 15 sec. The elute was then purified using a MinElute kit
# miRNA purification The small RNA elution mixture was applied to the MinElute column 700 µL at a time. […]
# qRT-PCR One µl thawed cDNA was mixed with 19 µl miR-122 or cel-lin4 PCR reaction master mix containing 1 µL Taqman^TM miR-122 or cel-lin4 primer small RNA assay (20X), 10 µl Taqman^TM universal PCR master mix II (2X) and 8 µL nuclease free water. Levels of miRNA were measured by the fluorescent signal produced from the Taqman probes on an ABI Prism 7000 (Applied Biosystems). miRNA levels were normalized to levels of cel-lin4 miRNA. Relative miRNA production was determined with the ΔCt method and reported as 2−ΔCt, where Ct is the threshold cycle. Differences in miRNA concentration were expressed as fold changes relative to control.
# [14] = Table 1, ref Garside et al. (2014)
# [15] = clinical DILI severity category, 1-5
# [16] = human Cmax total, used for IC50/Cmax
# [17] = human total plasma Cmax, ref literature values
# [18] = table S-4, ref Garside et al. 2014
# [19] = table S-5, ref Garside et al. 2014
SMILES,IC50 [1] [µM],Geomean IC50/cmax [2],pIC50 [3],"DILI severity category [4, 14]","DILI severity category [4, 15]",DILI category ([4]; ref Garside et al. 2014),"Cmax [5, 16] [nM]","Cmax [5, 17] [nM]",FDA DILI Classification DILI severity score [7],LTKB DILI classification [7],"DILI severity category [4, 18]","DILI severity category [4, 19]",pIC50 [8],pIC50 ([1]; read-out: IC50 (ATP-assay)),pIC50 ([1]; read-out: IC50 LONG),pIC50 [9],further results
Nc1c2c(nc3ccccc13)CCCC2 [Tacrine],~69.6,696.2,3.97,–,–,–,–,–,–,–,–,–,–,–,–,–,–
Nc1nc(F)nc2c1ncn2[C@@H]1O[C@H](CO)[C@@H](O)[C@@H]1O [Fludarabine],6.8,39.9,< 4.30,4: Enzyme elevations in clinic (N = 16),4. Enzyme Elevations in Clinic,4. Enzyme Elevations in Clinic,170,170,0,no DILI concern,–,–,–,–,–,–,P/N (DILI positive / DILI negative) [4]: N; P/N (DILI positive / DILI negative) [6]: N
CCc1nn(CCCN2CCN(c3cccc(Cl)c3)CC2)c(=O)n1CCOc1ccccc1 [Nefazodone],~29.4,–,4.44,1: Severe clinical DILI (N = 23),1. Severe Clinical DILI,1. Severe Clinical DILI,4300,4260,8,most DILI concern,1,1. Severe Clinical DILI,4.60,~4.35,4.53,4.31,classification at 50× MOS threshold ([1]; hLiMT 14 days): hepatotoxic; classification at 50× MOS threshold ([3]; PHH 48 h): hepatotoxic
Cc1c(C)c2c(c(C)c1O)CCC(C)(COc1ccc(CC3SC(=O)NC3=O)cc1)O2 (stereo not drawn) [Troglitazone],~14.6,–,< 4.00,1: Severe clinical DILI (N = 23),1. Severe Clinical DILI,1. Severe Clinical DILI,6400,–,8,most DILI concern,1,1. Severe Clinical DILI,4.59,4.97,4.84,4.86,–
Cc1ccc(C(=O)c2cc(O)c(O)c([N+](=O)[O-])c2)cc1 [Tolcapone],~19,–,3.80,1: Severe clinical DILI (N = 23),1. Severe Clinical DILI,1. Severe Clinical DILI,47600,47600,8,most DILI concern,1,1. Severe Clinical DILI,4.52,4.71,4.81,4.20,–
CC(C)c1nc(N(C)S(C)(=O)=O)nc(-c2ccc(F)cc2)c1/C=C/[C@@H](O)C[C@@H](O)CC(=O)O [Rosuvastatin],7.8,–,< 4.00,3: Low clinical DILI concern (N = 23),3. Low Clinical DILI Concern,3. Low Clinical DILI Concern,10,10,3,less DILI concern,3,–,4.47,–,–,–,"mild, transient elevations of plasma enzyme levels [10]: 1–3%"
COC(c1ccccc1)(c1ccccc1)[C@H](Oc1nc(C)cc(C)n1)C(=O)O [Ambrisentan],> 100,–,< 4.00,5: No DILI (N = 25),5. No DILI,5. No DILI,790,790,7,Ambiguous DILI concern,–,–,–,–,–,–,"P/N (DILI positive / DILI negative) [4]: N; P/N (DILI positive / DILI negative) [6]: N; cytotoxicity ([1]; hLiMT 14 days, in words): did not detect cytotoxicity; also recorded: not cytotoxic; fold lower potency to inhibit BSEP transporter function than bosentan [11]: 10 fold; fold lower potency to inhibit BSEP transporter function than sitax(s)entan [11]: 30 fold"
CC(COc1ccccc1)N(CCCl)Cc1ccccc1 (stereo not drawn) [Phenoxybenzamine],> 25,> 126.9,< 4.30,–,–,–,–,200,–,–,–,–,–,–,–,–,–
CN(C)CCCN1c2ccccc2Sc2ccc(Cl)cc21 [Chlorpromazine],~7.4,–,4.72,3: Low clinical DILI concern (N = 23),3. Low Clinical DILI Concern,3. Low Clinical DILI Concern,940,940,2,less DILI concern,3,3. Low Clinical DILI Concern,4.96,5.15,5.15,4.34,release of HMGB1 [12]: dose-dependent release; release of miR-122 [13]: dose-dependent release
